Laboratory results as given in patent USRE39634E1, “Bisarylimidazoly fatty acid amide hydrolase inhibitors” (Bristol-Myers Squibb Company, priority 2001, dated 2007).

biological target: T1, human FAAH (Homo sapiens, UniProt O00519); assay: Determination of FAAH activity (membrane homogenates of H4-FAAH cells, [3H]-anandamide hydrolysis); type: biochemical; conditions: transfected human FAAH, H4-FAAH cell membranes, 10 μM anandamide, room temperature, one hour
T1 construct: expressed in transfected cells; host or cells: H4 cells stably transfected with human FAAH (Geneticin selection); crude membrane homogenates
T1 sequence (O00519 1-579): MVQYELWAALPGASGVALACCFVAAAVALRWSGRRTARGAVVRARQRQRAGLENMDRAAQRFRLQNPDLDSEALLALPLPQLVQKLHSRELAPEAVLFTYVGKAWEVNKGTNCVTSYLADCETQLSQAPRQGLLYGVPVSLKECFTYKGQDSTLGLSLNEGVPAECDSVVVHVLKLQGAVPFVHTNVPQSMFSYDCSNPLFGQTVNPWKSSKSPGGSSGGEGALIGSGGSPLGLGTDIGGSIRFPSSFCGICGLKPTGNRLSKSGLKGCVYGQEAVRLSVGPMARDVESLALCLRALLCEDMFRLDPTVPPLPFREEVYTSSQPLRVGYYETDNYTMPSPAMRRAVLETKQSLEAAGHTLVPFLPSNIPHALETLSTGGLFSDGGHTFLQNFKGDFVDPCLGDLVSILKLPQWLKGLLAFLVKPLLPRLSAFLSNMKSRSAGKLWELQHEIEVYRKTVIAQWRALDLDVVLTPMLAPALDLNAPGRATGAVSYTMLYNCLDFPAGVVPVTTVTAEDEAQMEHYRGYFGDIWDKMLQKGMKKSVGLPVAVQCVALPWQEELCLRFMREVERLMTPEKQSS
Procedure: Homogenates of crude membranes were prepared from H4 cells that express transfected human FAAH (H4-FAAH cells). Briefly, cells were grown in DMEM supplemented with 10% FBS and Geneticin at a final concentration of 500 μg/ml (Gibco BRL, Rockville, Md.). Confluent cultures of H4-FAAH cells were rinsed twice with phosphate-buffered saline [138 mM NaCl, 4.1 mM KCl, 5.1 mM Na2PO4, 1.5 mM KH2PO4 (pH 7.5), 37° C.] and incubated for 5-10 min. at 4° C. in lysis buffer [1 mM sodium bicarbonate]. Cells were transferred from plates to polypropylene tubes (16×100 mm), homogenized and centrifuged at 32,000×g for 30 min. Pellets were resuspended by homogenization in lysis buffer and centrifuged at 32,000×g for 30 min. Pellets were resuspended in lysis buffer (15-20 μg protein/ml) then stored at −80° C. until needed. On the day of an experiment, membranes were diluted to 2.67 μg protein/ml in 125 mM Tris-Cl, pH 9.0
Activity of FAAH was measured using a modification of the method described by Omeir et al., 1995 (Life Sci 56:1999, 1995). Membrane homogenates (240 ng protein) were incubated at room temperature for one hour with 1.67 nM anandamide [ethanolamine 1-^3H] (American Radiolabeled Chemical Inc., St Louis, Mo.) and 10 μM anandamide (Sigma/RBI, St. Louis, Mo.) in the absence and presence of inhibitors. The reaction was stopped by the addition of 1 volume of a solution of methanol and dichloroethane (1:1). The mixture was shaken and then centrifuged at 1000×g for 15 min. to separate the aqueous and organic phases. An aliquot of the aqueous phase, containing [^3H]-ethanolamine was withdrawn and counted by scintillation spectroscopy. Data were expressed as the percentage of [^3H]-ethanolamine formed versus vehicle, after subtraction of the background radioactivity determined in the presence of 10 μM arachidonyl trifluoromethyl ketone (ATFMK), an inhibitor of FAAH. IC50 values were determined using a four-parameter logistic equation for dose-response curves.

Row | SMILES | IC50 [nM]
1 | COc1ccc(OC(=O)NCCCCCn2c(C)nc(-c3ccccc3)c2-c2ccccc2)cc1 [Example 36, [5-(2-Methyl-4,5-diphenyl-imidazol-1-yl)-pentyl]-carbamic acid 4-methoxy-phenyl ester] | 10 to 100
2 | Cc1ccccc1OC(=O)NCCCCCn1c(C)nc(-c2ccccc2)c1-c1ccccc1 [Example 37, [5-(2-Methyl-4,5-diphenyl-imidazol-1-yl)-pentyl]-carbamic acid o-tolyl ester] | 100 to 1000
3 | Cc1nc(-c2ccccc2)c(-c2ccccc2)n1CCCCCNC(=O)Oc1ccc(C#N)cc1 [Example 38, [5-(2-Methyl-4,5-diphenyl-imidazol-1-yl)-pentyl]-carbamic acid 4-cyano-phenyl ester] | 10 to 100
4 | COc1cccc(OC)c1OC(=O)NCCCCCn1c(C)nc(-c2ccccc2)c1-c1ccccc1 [Example 39, [5-(2-Methyl-4,5-diphenyl-imidazol-1-yl)-pentyl]-carbamic acid 2,6-dimethoxy-phenyl ester] | 1000 to 10000
5 | COc1ccccc1OC(=O)NCCCCCn1c(C)nc(-c2ccccc2)c1-c1ccccc1 [Example 40, [5-(2-Methyl-4,5-diphenyl-imidazol-1-yl)-pentyl]-carbamic acid 2-methoxy-phenyl ester] | 100 to 1000
6 | Cc1nc(-c2ccccc2)c(-c2ccccc2)n1CCCCCCNC(=O)Oc1ccc(F)c(F)c1 [Example 41, [6-(2-Methyl-4,5-diphenyl-imidazol-1-yl)-hexyl]-carbamic acid 3,4-difluoro-phenyl ester] | < 10
7 | Cc1nc(-c2ccc(F)cc2)c(-c2ccc(F)cc2)n1CCCCCCNC(=O)Oc1ccccc1F [Example 43, {6-[4,5-Bis-(4-fluoro-phenyl)-2-methyl-imidazol-1-yl]-hexyl}-carbamic acid 2-fluoro-phenyl ester] | < 10
8 | Cc1nc(-c2ccc(F)cc2)c(-c2ccc(F)cc2)n1CCCCCCNC(=O)Oc1c(F)cccc1F [Example 44, {6-[4,5-Bis-(4-fluoro-phenyl)-2-methyl-imidazol-1-yl]-hexyl}-carbamic acid 2,6-difluoro-phenyl ester] | 10 to 100
9 | CCOC(=O)NCCCCCCn1c(C)nc(-c2ccccc2)c1-c1ccccc1 [Example 45, [6-(2-Methyl-4,5-diphenyl-imidazol-1-yl)-hexyl]-carbamic acid ethyl ester] | 100 to 1000
10 | Cc1nc(-c2ccccc2)c(-c2ccccc2)n1CCCCCCNC(=O)O/N=C/c1ccccc1 [Example 46, Benzaldehyde, O-[6-(2-methyl-4,5-diphenyl-1H-imidazol-1-yl)hexylaminocarbonyl]oxime] | 10 to 100
11 | Cc1nc(-c2ccccc2)c(-c2ccccc2)n1CCCCCCNC(=O)O/N=C/c1ccc(F)cc1 [Example 47, 4-Fluorobenzaldehyde,O-[6-(2-methyl-4,5-diphenyl-1H-imidazol-1-yl)hexylaminocarbonyl]oxime] | 10 to 100
12 | Cc1nc(-c2ccccc2)c(-c2ccccc2)n1CCCCCCNC(=O)O/N=C/c1ccccc1[N+](=O)[O-] [Example 48, 2-Nitrobenzaldehye, O-[6-(2-methyl-4,5-diphenyl-1H-imidazol-1-yl)hexylaminocarbonyl]oxime] | 10 to 100
13 | Cc1nc(-c2ccccc2)c(-c2ccccc2)n1CCCCCCNC(=O)O/N=C/c1cccc([N+](=O)[O-])c1 [Example 49, 3-Nitrobenzaldehyde, O-[6-(2-methyl-4,5-diphenyl-1H-imidazol-1-yl)hexylaminocarbonyl]oxime] | 10 to 100
14 | Cc1nc(-c2ccccc2)c(-c2ccccc2)n1CCCCCCNC(=O)O/N=C/c1ccc([N+](=O)[O-])cc1 [Example 50, 4-Nitrobenzaldehyde, O-{6-(2-methyl-4,5-diphenyl-1H-imidazol-1-yl)hexylaminocarbonyl]oxime] | 10 to 100
15 | Cc1nc(-c2ccccc2)c(-c2ccccc2)n1CCCCCCNC(=O)O/N=C/c1cccnc1 [Example 51, 3-Pyridinecarboxaldehyde, O-[6-(2-methyl-4,5-diphenyl-1H-imidazol-1-yl)hexylaminocarbonyl]oxime] | 10 to 100
16 | Cc1nc(-c2ccccc2)c(-c2ccccc2)n1CCOc1ccc(NC(=O)Oc2ccc(F)c(F)c2)cc1 [Example 52, {4-[2-(2-Methyl-4,5-diphenyl-imidazol-1-yl)-ethoxy]-phenyl}-carbamic acid 3,4-difluoro-phenyl ester] | 1000 to 10000
17 | Cc1nc(-c2ccccc2)c(-c2ccccc2)n1CCOc1ccc(NC(=O)Oc2ccc(Cl)cc2)cc1 [Example 53, {4-[2-(2-Methyl-4,5-diphenyl-imidazol-1-yl)-ethoxy]-phenyl}-carbamic acid 4-chloro-phenyl ester] | 1000 to 10000
18 | Cc1nc(-c2ccccc2)c(-c2ccccc2)n1CCCOc1ccc(NC(=O)Oc2ccc(F)c(F)c2)cc1 [Example 55, {4-[3-(2-Methyl-4,5-diphenyl-imidazol-1-yl)-propoxy]-phenyl}-carbamic acid 3,4-difluoro-phenyl ester] | 100 to 1000
19 | COc1ccc(OC(=O)Nc2ccc(OCCCn3c(C)nc(-c4ccccc4)c3-c3ccccc3)cc2)cc1 [Example 56, {4-[3-(2-Methyl-4,5-diphenyl-imidazol-1-yl)-propoxy]-phenyl}-carbamic acid 4-methoxy-phenyl ester] | 100 to 1000
20 | Cc1nc(-c2ccccc2)c(-c2ccccc2)n1CCCOc1ccc(NC(=O)Oc2ccc(Cl)cc2)cc1 [Example 57, {4-[3-(2-Methyl-4,5-diphenyl-imidazol-1-yl)-propoxy]-phenyl}-carbamic acid 4-chloro-phenyl ester] | 100 to 1000
21 | Cc1nc(-c2ccccc2)c(-c2ccccc2)n1CCCOc1ccc(NC(=O)Oc2cccc(Cl)c2)cc1 [Example 59, {4-[3-(2-Methyl-4,5-diphenyl-imidazol-1-yl)-propoxy]-phenyl}-carbamic acid 3-chloro-phenyl ester] | 100 to 1000
22 | Cc1nc(-c2ccccc2)c(-c2ccccc2)n1CCOc1ccc(NC(=O)Oc2ccccc2)cc1 [Example 60, {4-[2-(2-Methyl-4,5-diphenyl-imidazol-1-yl)-ethoxy]-phenyl}-carbamic acid phenyl ester] | 1000 to 10000
23 | Cc1nc(-c2ccccc2)c(-c2ccccc2)n1CCOc1ccc(NC(=O)Oc2ccccc2F)cc1 [Example 61, {4-[2-(2-Methyl-4,5-diphenyl-imidazol-1-yl)-ethoxy]-phenyl}-carbamic acid 2-fluoro-phenyl ester] | 1000 to 10000
24 | Cc1nc(-c2ccccc2)c(-c2ccccc2)n1CCOc1ccc(NC(=O)Oc2ccc(F)cc2)cc1 [Example 62, {4-[2-(2-Methyl-4,5-diphenyl-imidazol-1-yl)-ethoxy]-phenyl}-carbamic acid 4-fluoro-phenyl ester] | 1000 to 10000
25 | Cc1nc(-c2ccccc2)c(-c2ccccc2)n1CCCOc1ccc(NC(=O)Oc2ccccc2)cc1 [Example 63, {4-[3-(2-Methyl-4,5-diphenyl-imidazol1-yl)-propoxy]-phenyl}-carbamic acid phenyl ester] | 1000 to 10000
26 | COc1ccc(OC(=O)Nc2ccc(OCCn3c(C)nc(-c4ccccc4)c3-c3ccccc3)cc2)cc1 [Example 64, {4-[2-(2-Methyl-4,5-diphenyl-imidazol-1-yl)-ethoxy]-phenyl}-carbamic acid 4-methoxy-phenyl ester] | 1000 to 10000
27 | Cc1nc(-c2ccccc2)c(-c2ccccc2)n1CCCOc1ccc(NC(=O)Oc2ccccc2F)cc1 [Example 66, {4-[3-(2-Methyl-4,5-diphenyl-imidazol-1-yl)-propoxy]-phenyl}-carbamic acid 2-fluoro-phenyl ester] | 1000 to 10000
28 | Cc1nc(-c2ccccc2)c(-c2ccccc2)n1CCCOc1ccc(NC(=O)Oc2c(F)cccc2F)cc1 [Example 69, {4-[3-(2-Methyl-4,5-diphenyl-imidazol-1-yl)-propoxy]-phenyl}-carbamic acid 2,6-difluoro-phenyl ester] | 1000 to 10000
29 | CCOC(=O)Nc1ccc(OCCn2c(C)nc(-c3ccccc3)c2-c2ccccc2)cc1 [Example 70, {4-[2-(2-Methyl-4,5-diphenyl-imidazol-1-yl)-ethoxy]-phenyl}-carbamic acid ethyl ester] | 1000 to 10000
